The text below walks through data of patent US5734052A (Merrell Pharmaceuticals Inc., priority 1995, dated 1998).

The target in one assay is T1, adenosine A-2 receptors (Rattus norvegicus, UniProt P30543).
T1 construct: tissue Charles River; host or cells: striatal membranes of young male rats (C-D strain)
The experiment in a line: Affinity for brain adenosine A-2 receptors ([3H]NECA competition, striatal membranes). The following applies: rat brain striatum membranes, 1 μM CHA in tube addition, 25° C., 60 minutes, read-out: A2 Ki. It counts as binding. As to the method:
Young male rats (C-D strain), obtained from Charles River, are killed by decapitation and the brain was removed. Membranes for ligand binding are isolated from rat brain striatum. The tissue is homogenized in 20 vol ice-cold 50 mM Tris-HCl buffer (pH 7.7) using a polytron (setting for 6 to 20 seconds). The homogenate is centrifuged at 50,000×g for 10 minutes at 4° C. The pellet is again homogenized in a polytron in 20 vol of buffer, and centrifuged as before. The pellet is finally resuspended in 40 vol of 50 mM Tris-HCl (pH 7.7) per gram of original wet weight of tissue.
Incubations are carried out at 25° C. for 60 minutes. Each tube is filtered through GF/B glass fiber filters using a vacuum. The filters are rinsed two times with 5 ml of the ice-cold buffer. […] The filters are counted by liquid scintillation spectrometry.
Specific binding of [3H]NECA is measured as the excess over blanks run in the presence of 100 μM 2-chloro-adenosine. Total membrane-bound radioactivity is about 2.5% of that added to the test tubes. […] Specific binding to membranes is about 50% of the total bound.

In the next assay the test system is adenosine receptor. The note with it: in vivo; cited from earlier work.
Assay [1] has as its target T2, Adenosine A-1 receptor (Rattus norvegicus, UniProt P25099).
T2 sequence (P25099 1-326): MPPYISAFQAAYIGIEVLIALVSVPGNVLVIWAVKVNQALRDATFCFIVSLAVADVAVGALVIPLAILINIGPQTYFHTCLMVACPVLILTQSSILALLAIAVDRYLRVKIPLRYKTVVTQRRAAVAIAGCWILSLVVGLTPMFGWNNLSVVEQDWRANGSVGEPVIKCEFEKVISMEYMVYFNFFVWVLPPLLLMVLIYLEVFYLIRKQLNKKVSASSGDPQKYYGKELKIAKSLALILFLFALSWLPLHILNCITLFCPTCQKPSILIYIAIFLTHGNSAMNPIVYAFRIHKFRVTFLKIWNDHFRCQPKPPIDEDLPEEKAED

Assay [2] addresses T2, Adenosine A-1 receptor. The experiment in a line: Affinity for brain adenosine A-1 receptor binding sites ([3H]cyclohexyladenosine competition). The note with it: ratio of A2 Ki to A1 Ki.
For another assay, the system named is A-1 receptors. The following applies: in vitro, A-1 vs A-2; cited from earlier work.

T1 sequence (P30543 whole entry): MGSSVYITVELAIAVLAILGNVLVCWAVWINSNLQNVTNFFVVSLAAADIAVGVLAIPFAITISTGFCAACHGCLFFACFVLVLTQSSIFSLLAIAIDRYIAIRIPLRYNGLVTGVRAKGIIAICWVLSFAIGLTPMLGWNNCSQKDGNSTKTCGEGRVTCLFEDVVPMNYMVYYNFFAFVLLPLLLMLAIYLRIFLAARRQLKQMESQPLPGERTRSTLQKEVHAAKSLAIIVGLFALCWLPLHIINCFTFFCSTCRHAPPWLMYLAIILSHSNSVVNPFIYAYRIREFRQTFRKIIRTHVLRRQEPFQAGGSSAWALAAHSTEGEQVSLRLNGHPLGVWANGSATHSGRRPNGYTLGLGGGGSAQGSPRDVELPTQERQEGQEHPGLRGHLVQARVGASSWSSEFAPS

As to `CCCn1c(=O)c2nc(C3CCc4ccccc4C3)[nH]c2n(CCC)c1=O` (stereo not shown) [1,3-Dipropyl-8-(1,2,3,4-tetrahydronaphthalen-2-yl)-3,9-dihydropurine-2,6-dione], the Ki at adenosine A-2 receptors came out at 10300 nM.

Regarding `CCCn1c(=O)c2[nH]c(-c3ccc(OCC(=O)NCCN)cc3)nc2n(CCC)c1=O` [XAC], in the assay with adenosine receptor, the “potency in antagonizing effects of adenosine analogs on heart rate vs blood pressure” value was “much more potent in antagonizing the effects of adenosine analogs on heart rate than on blood pressure”.

In the case of `CCCn1c(=O)c2nc(CC(C)c3ccccc3)[nH]c2n(CCC)c1=O` (stereo not shown) [8-(2-Phenylpropyl)-1,3-dipropyl-3,9-dihydropurine-2,6-dione], the Ki on Adenosine A-1 receptor [1] was determined as 94.3 nM; at adenosine A-2 receptors, 1740 nM. The A2/A1 at Adenosine A-1 receptor [2] is 18.

Turning to `CCCn1c(=O)c2[nH]c(-c3ccc(OCC(=O)O)cc3)nc2n(CCC)c1=O` [XCC], the adenosine receptor selectivity result in the assay with A-1 receptors is on record as “adenosine receptor nonselective”.

With `CCCn1c(=O)c2[nH]c([C@@H]3CCC[C@H]3c3ccccc3)nc2n(CCC)c1=O` (relative stereo) [8-(trans-2-Phenylcyclopentyl)-1,3-dipropyl-3,9-dihydropurine-2,6-dione], on adenosine A-2 receptors, the Ki was 2720 nM.
